Key:
Assay in all cases: relative viability (nuclei count vs DMSO), 5 days (fraction); higher = more cells survive
GSK126 + Lapatinib = compound: CC[C@H](C)N1C=C(C2=C(C=C(C=C21)C3=CN=C(C=C3)N4CCNCC4)C(=O)NCC5=C(C=C(NC5=O)C)C)C [GSK126] + CS(=O)(=O)CCNCc1ccc(-c2ccc3ncnc(Nc4ccc(OCc5cccc(F)c5)c(Cl)c4)c3c2)o1 [Lapatinib] (partner 2 µM)
Procedure, shortened: (§1)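 Lung cancer cell lines were pin-tool dosed in 1536-well plates on the day after seeding, with either a lone drug or a fixed anchor-drug dose plus five library-drug doses (not always all listed) in √10 steps. Nuclei were counted on 4× images after 5 days. Relative viability is the ratio of treated-well to vehicle-well nuclei counts, with each value a median of duplicate plates.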

Carboplatin + Phenformin = compound: C1CC(C1)(C(=O)O)C(=O)O.[NH2-].[NH2-].[Pt+2] [Carboplatin] + N=C(N)NC(=N)NCCc1ccccc1 [Phenformin] (partner 250 µM)
Procedure, shortened: as §1

MLN4924 + Phenformin = compound: NS(=O)(=O)OC[C@@H]1C[C@@H](n2ccc3c(N[C@H]4CCc5ccccc54)ncnc32)C[C@@H]1O [MLN4924] + N=C(N)NC(=N)NCCc1ccccc1 [Phenformin] (partner 250 µM)
Procedure, shortened: as §1

MLN4924 + Olaparib = compound: NS(=O)(=O)OC[C@@H]1C[C@@H](n2ccc3c(N[C@H]4CCc5ccccc54)ncnc32)C[C@@H]1O [MLN4924] + O=C(c1cc(Cc2n[nH]c(=O)c3ccccc23)ccc1F)N1CCN(C(=O)C2CC2)CC1 [Olaparib] (partner 8 µM)
Procedure, shortened: as §1

| Cell Line | relative viability (GSK126 + Lapatinib; first compound 0.08 µM) | relative viability (GSK126 + Lapatinib; first compound 0.253 µM) | relative viability (GSK126 + Lapatinib; first compound 0.8 µM) | relative viability (GSK126 + Lapatinib; first compound 2.53 µM) | relative viability (GSK126 + Lapatinib; first compound 8 µM) | relative viability (Carboplatin + Phenformin; first compound 0.08 µM) | relative viability (Carboplatin + Phenformin; first compound 0.253 µM) | relative viability (Carboplatin + Phenformin; first compound 0.8 µM) | relative viability (Carboplatin + Phenformin; first compound 2.53 µM) | relative viability (Carboplatin + Phenformin; first compound 8 µM) | relative viability (MLN4924 + Phenformin; first compound 0.04 µM) | relative viability (MLN4924 + Phenformin; first compound 0.1265 µM) | relative viability (MLN4924 + Phenformin; first compound 0.4 µM) | relative viability (MLN4924 + Phenformin; first compound 1.265 µM) | relative viability (MLN4924 + Phenformin; first compound 4 µM) | relative viability (MLN4924 + Olaparib; first compound 0.04 µM) | relative viability (MLN4924 + Olaparib; first compound 0.1265 µM) | relative viability (MLN4924 + Olaparib; first compound 0.4 µM) | relative viability (MLN4924 + Olaparib; first compound 1.265 µM) | relative viability (MLN4924 + Olaparib; first compound 4 µM) |
| --- | --- | --- | --- | --- | --- | --- | --- | --- | --- | --- | --- | --- | --- | --- | --- | --- | --- | --- | --- | --- |
| 201T | 1.04 | 1.04 | 1.09 | 1.1 | 1.16 | 0.482 | 0.447 | 0.441 | 0.444 | 0.432 | 0.553 | 0.555 | 0.43 | 0.278 | 0.327 | 0.832 | 0.589 | 0.548 | 0.225 | 0.267 |
| A549 | 1.06 | 1.08 | 0.946 | 0.932 | 0.934 | 0.186 | 0.193 | 0.16 | 0.112 | 0.073 | 0.0967 | 0.154 | 0.0425 | 0.0445 | 0.0437 | 0.349 | 0.28 | 0.0869 | 0.045 | 0.0539 |
| A-427 | 1.14 | 1.1 | 1.05 | 1.07 | 0.962 | 0.428 | 0.385 | 0.32 | 0.285 | 0.383 | 0.193 | 0.165 | 0.171 | 0.146 | 0.151 | 0.467 | 0.335 | 0.296 | 0.24 | 0.241 |
| ABC-1 | 1.26 | 1.29 | 1.07 | 1.18 | 0.872 | 0.226 | 0.19 | 0.248 | 0.251 | 0.226 | 0.274 | 0.298 | 0.229 | 0.212 | 0.222 | 0.997 | 0.878 | 0.779 | 0.275 | 0.294 |
| BEN | 0.818 | 0.826 | 0.756 | 0.799 | 0.811 | 0.233 | 0.275 | 0.258 | 0.264 | 0.248 | 0.214 | 0.185 | 0.218 | 0.183 | 0.145 | 0.662 | 0.328 | 0.264 | 0.189 | 0.207 |
| CAL-12T | 0.63 | 0.674 | 0.615 | 0.809 | 0.644 | 0.56 | 0.584 | 0.591 | 0.534 | 0.557 | 0.511 | 0.511 | 0.292 | 0.214 | 0.129 | 0.667 | 0.538 | 0.249 | 0.17 | 0.13 |
| Calu-6 | 1.1 | 1.14 | 1.07 | 1.11 | 1.03 | – | – | – | – | – | – | – | – | – | – | 0.369 | 0.268 | 0.167 | 0.0976 | 0.0925 |
| ChaGo-K-1 | – | – | – | – | – | 0.459 | 0.508 | 0.467 | 0.381 | 0.392 | 0.315 | 0.298 | 0.24 | 0.199 | 0.176 | 0.279 | 0.205 | 0.227 | 0.153 | 0.147 |

Source: the supplement of paper PMC10307832
